From patent US7544483B2, “Method for the production of protamine” (priority 2002, dated 2009)
Structures can show the parent of a compound that is named as a salt.

Experiments:
Type in all cases: cell-based
[1] = tested on: Escherichia coli DH5α; assay: Effect of biological buffers with or without protamine on the growth of Escherichia coli DH5α; settings: buffer without protamine; starting inoculum 10^7 cells; mean of three replicates
Procedure: (§1) All bacterial strains are maintained as frozen stocks at −80° C. in TSB, Luria-Bertani broth.
(§2) Throughout the experiments strains are subcultured every 2 weeks on TSA (tryptic soy agar; 15 g l^−1 agar) or LBA (Luria-Bertani agar; 15 g l^−1 agar) depending upon the type of bacteria and experiment and kept at 4° C. The incubation temperature is 37° C. except for photo-heterotrophic bacteria (30° C.).
(§3) The growth curve is determined by measuring the optical density (OD), growth rate and doubling time. Additionally, the number of colony forming units is determined by counting bacterial spots.
(§4) Bacterial growth is monitored by recording the increase in optical density (OD) at 560 nm in a spectrophotometer (Ultrospec 1000, Pharmacia Biotech, England). Sterile medium is used as reference. […] At given times, 100 μl aliquots of the samples are removed and spread on corresponding agar plates. If necessary, the samples are diluted by factors between 10^2−10^8 to ensure good count ability. Colony forming unit determination (CFU/ml) is carried out in duplicate using a CCD camera module (Sony Corp., Japan) applying the BioProfil Software V 2000.01 (Vilber Lourmat, France).
(§5) A commercially available protamine from Salmon is obtained from Sigma Aldrich (Taufkirchen, Germany). A stock solution is prepared by dissolving protamine in distilled water. The solution is then sterilized with Rotabilo© filter units (0.22 μm; Carl Roth, Karlsruhe, Germany) and stored at −20° C. until use.
Determination of Bactericidal Effect of Biological Buffers With or Without Protamine on Gram-negative Bacteria
(§6) In all experiments the starting inoculum is 10^7 cells. The data shown are average means of three replicates.

[2] = tested on: Micrococcus luteus DSM 348; assay: Effect of biological buffers with or without protamine on the growth of Micrococcus luteus DSM 348; settings: for μ (growth rate): buffer without protamine, pH of 8.0 (FIG. 4), starting inoculum 10^7 cells, mean of three replicates
Procedure: as §1, §2, §3, §4, §5
Determination of Bactericidal Effect of Biological Buffers With or Without Protamine on Gram-positive Bacteria
as §6

[3] = tested on: Escherichia coli; assay: Growth of Escherichia coli in the presence of protamine
[4] = tested on: Pseudomonas fluorescens; assay: Protamine tolerance of Pseudomonas fluorescens with a special phenotype

O=C([O-])O.[Na+] [0.1M NaHCO3, NaHCO3]
td (doubling time) [1]: 3.01 h
μ (growth rate) [1]: 0.230 h⁻¹
μ (growth rate) [2]: 0 h⁻¹

O=C(O)CC(O)(CC(=O)O)C(=O)O [0.4M citrate]
td (doubling time) [1]: 3.75 h
μ (growth rate) [1]: 0.185 h⁻¹
μ (growth rate) [2]: 0 h⁻¹

lysozyme
concentration of protamine needed for bacterial death on further addition of lysozyme ([2]; pH of 8.0, citrate + bicarbonate composition with protamine, relative to the amount needed without lysozyme): 30%

protamine
protamine concentration at which the organism does not grow [3]: 1,5 mg/ml
protamine concentrations tolerated [4]: more than 40 mg/ml
effect of the composition additionally comprising protamine ([2]; pH of 8.0, citrate + bicarbonate composition): bacterial death
